Where two headings read alike, the source gives them in different places.
Key:
[1] = system: gastric ulcer; assay: Gastric ulcer formation; type: in vivo; details: 30 mg/kg orally, mice, 5 hours later
Description: Compound 1 was orally administered in amounts of 30 mg/kg to groups each consisting of 3 to 5 mice, mice were sacrificed with the use of ether 5 hours later, and the stomachs were extracted. The extracted stomachs were opened, each entire stomach was photographed using a stereoscopic microscope, and the lengths of the gastric ulcers were determined.

[2] = system: carrageenin-induced edema in footpads of hind paws; assay: Carrageenin edema test (antiinflammatory testing); type: in vivo, rat; details: 30 mg/kg orally; 3 hours after administration of 1% carrageenin
Description: Antiinflammatory testing was carried out via a rat-based carrageenin edema test. Compounds were orally administered in amounts of 30 mg/kg to groups each consisting of 5 to 8 […], and an edema-inducing substance (a 1% carrageenin solution) was administered hypodermically to footpads of hind paws 1 hour later (0.1 ml/mouse). Edema thickness in the footpads of hind paws was measured 1, 2, and 3 hours thereafter.

[3] = system: acetic acid-induced writhing responses; assay: Acetic acid writhing test (analgesic testing); type: in vivo; details: mice; for Number of writhing responses: counted for 10 minutes, average; for Analgesic effect, suppression of the number of writhing responses (in words): oral administration
Description: Analgesic testing was carried out via common mice-based acetic acid writhing test. Compounds were administered orally in amounts of 30 mg/kg to groups each consisting of 10 or 11 mice, and a substance that applies pain stimuli, i.e., a 0.7% acetic acid solution, was intraperitoneally administered 30 minutes thereafter (0.1 ml/10 g). The counting of mice-specific writhing responses was initiated 10 minutes after the administration of the acetic acid solution, and the counting was continued for 10 minutes. This test utilizes the fact that a distinct symptom of agony, that is a writhing response, occurs upon administration of a stimulatory substance, such as an acetic acid solution, to a mouse. […] When compound 1 was administered in amounts of 30 mg/kg, however, the number of writhing responses was 5 on average. When compound 1 was administered in amounts of 10 mg/kg, the number of writhing responses was 10 on average. When compound 14 was administered in amounts of 30 mg/kg, the number of writhing responses was 6 on average.

[4] = target: T1, cyclooxygenase 2 (COX-2) (Ovis aries, UniProt P79208); assay: Cayman Cyclooxygenase Inhibitor Screening Assay Kit (760111), COX-2; type: biochemical; details: for inhibition at 100 µM: read-out: Inhibitory activity of 100 μM compound (%) COX-2
T1 construct: purchased Cayman 760111
T1 sequence (P79208 17-603): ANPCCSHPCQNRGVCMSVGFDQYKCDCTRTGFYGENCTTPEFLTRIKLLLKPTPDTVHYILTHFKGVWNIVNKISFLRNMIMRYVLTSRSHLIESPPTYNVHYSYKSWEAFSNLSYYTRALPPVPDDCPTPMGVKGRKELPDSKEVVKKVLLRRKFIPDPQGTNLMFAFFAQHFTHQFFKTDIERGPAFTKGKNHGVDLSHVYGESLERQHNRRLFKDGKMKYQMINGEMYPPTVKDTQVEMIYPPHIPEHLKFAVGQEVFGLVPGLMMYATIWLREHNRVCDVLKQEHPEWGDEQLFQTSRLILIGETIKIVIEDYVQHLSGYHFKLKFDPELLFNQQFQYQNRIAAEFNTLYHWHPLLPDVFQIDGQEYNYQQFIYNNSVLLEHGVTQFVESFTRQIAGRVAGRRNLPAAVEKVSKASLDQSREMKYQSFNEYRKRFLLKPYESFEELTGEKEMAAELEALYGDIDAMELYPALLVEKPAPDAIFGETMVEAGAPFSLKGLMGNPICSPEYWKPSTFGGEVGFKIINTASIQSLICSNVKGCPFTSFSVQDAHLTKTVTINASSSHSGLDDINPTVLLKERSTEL

[5] = target: T2, cyclooxygenase-1 (COX-1) (Ovis aries, UniProt P05979); assay: Cayman Cyclooxygenase Inhibitor Screening Assay Kit (760111), COX-1; type: biochemical; details: for inhibition at 100 µM: read-out: Inhibitory activity of 100 μM compound (%) COX-1
T2 construct: purchased Cayman 760111
T2 sequence (P05979 25-600): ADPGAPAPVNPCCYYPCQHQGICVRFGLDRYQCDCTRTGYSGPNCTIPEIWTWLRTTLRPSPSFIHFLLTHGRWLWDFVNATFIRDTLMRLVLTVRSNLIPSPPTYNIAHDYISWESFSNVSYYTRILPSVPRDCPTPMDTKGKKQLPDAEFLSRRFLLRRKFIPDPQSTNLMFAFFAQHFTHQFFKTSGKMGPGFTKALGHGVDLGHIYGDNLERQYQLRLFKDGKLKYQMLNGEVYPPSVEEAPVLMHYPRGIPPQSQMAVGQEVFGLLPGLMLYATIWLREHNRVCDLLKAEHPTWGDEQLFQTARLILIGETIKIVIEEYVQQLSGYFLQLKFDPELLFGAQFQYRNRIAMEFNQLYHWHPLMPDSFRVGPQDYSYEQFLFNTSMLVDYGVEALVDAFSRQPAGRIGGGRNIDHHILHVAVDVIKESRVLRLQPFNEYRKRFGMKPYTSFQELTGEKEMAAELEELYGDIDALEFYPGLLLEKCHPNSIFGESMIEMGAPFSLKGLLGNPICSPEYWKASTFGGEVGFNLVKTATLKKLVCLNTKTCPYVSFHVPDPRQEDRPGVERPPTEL

[6] = 10 mg/kg orally, 0.7% acetic acid i.p.
[7] = 30 mg/kg orally, 0.7% acetic acid i.p. 30 minutes later

Compound	Gastric ulcer formation (in words) [1]	Total length of gastric ulcer (mm) [1]	Inhibitory activity against edema (%) [2]	Number of writhing responses [3, 6]	Number of writhing responses [3, 7]	IC50 [4]	inhibition at 100 µM [4]	Death of mice (1 g/kg intraperitoneally, 3 mice, observed for 10 days)	IC50 [5]	inhibition at 100 µM [5]	Analgesic effect, suppression of the number of writhing responses (in words) [3]	Death of mice (300 mg/kg intraperitoneally, 5 mice, observed for 14 days)
CC(=O)Oc1ccccc1C(=O)O [Aspirin, aspirin, reference compound]	significant gastric ulcers	1.61 mm	16%	17	15							
Nc1ccc(NC(=O)c2ccc(C(F)(F)F)cc2)nc1 [Compound 1]	not observed	0.09 mm	31%	10	5	> 100 µM	24%	did not die	1 µM	98%	significantly suppresses	
Nc1ccc(C(=O)Nc2ccc(C(F)(F)F)cn2)cc1 [Compound 14]	not observed	0.01 mm			6	> 100 µM	15%		30 µM	65%	significantly suppresses	did not die

Source: patent publication US20100069443A1, “COMPOUND WITH BENZAMIDE SKELETON HAVING CYCLOOXYGENASE-1 (COX-1)-SELECTIVE INHIBITORY ACTIVITY” (National University Corporation Okayama University, priority 2006, published 2010)
